# Tested on: KBH5.0 (a variant that overexpresses BCRP)
# Experiment: Test B. Efflux Assay: relative cytotoxicity, parent KB3-1 vs KBH5.0
# Assay type: cell-based
# Conditions: relative cytotoxicity between parent KB3-1 and variant KBH5.0 cell lines
# Method: The ability of a compound described herein to be actively transported can be determined using pharmacological models that are well known in the art, for example, using a model like test B described below.
# The cytotoxicity of the representative compounds of the invention were also tested against cell line KB3-1 (parent cell line), KBV-1 (a variant that overexpresses efflux transporter MDR1) and KBH5.0 (a variant that overexpresses BCRP). Differences in the relative cytotoxicity between the parent and variant cell lines may be indicative of a compound that is a substrate for an efflux transporter. […] Accordingly, compounds of the invention may be useful to treat tumors that are resistant to other anticancer agents, including anticancer agents that are susceptible to efflux by BCRP (e.g. anthracyclines, mitoxantrone, topotecan, irinotecan, bisanthrone, doxorubicin, daunorubicin, and epirubin.
compound,measurement,value
COc1cc2c(=O)n(CCN(C)C(=O)C3CCN(C)CC3)c3c4cc5c(cc4ncc3c2cc1OC)OCO5 [Example 2],substrate for efflux transporter BCRP,not a substrate for BCRP

# From patent publication US11091498B2, “Topoisomerase poisons” (Rutgers, The State University of New Jersey, priority 2016, dated 2021)
